Experimental data from the NIST ThermoML archive (doi:10.1021/je5010214).

Conditions: Liquid, Vibrating tube method

CCCCO [butan-1-ol]
Conditions | mass density [kg/m3]
303.15 K, 21920 kPa | 817.555
303.15 K, 24992 kPa | 819.44
303.15 K, 31958 kPa | 823.711
303.15 K, 32862 kPa | 824.267
303.15 K, 33112 kPa | 824.372
303.15 K, 34081 kPa | 824.9
303.15 K, 34980 kPa | 825.355
303.15 K, 37951 kPa | 827.164
303.15 K, 39904 kPa | 828.27
303.15 K, 42014 kPa | 829.398
303.15 K, 44896 kPa | 831.035
303.15 K, 47951 kPa | 832.781
303.15 K, 50065 kPa | 833.864
303.15 K, 52073 kPa | 834.942
303.15 K, 55075 kPa | 836.525
303.15 K, 57989 kPa | 838.099
303.15 K, 59979 kPa | 839.13
303.15 K, 62052 kPa | 840.165
303.15 K, 64988 kPa | 841.599
303.15 K, 66030 kPa | 842.119
303.16 K, 100 kPa | 802.125
303.16 K, 2964.9 kPa | 804.3
303.16 K, 7045.6 kPa | 807.335
303.16 K, 8858.2 kPa | 808.638
303.16 K, 10014 kPa | 809.449
303.16 K, 18021 kPa | 814.973
303.16 K, 27933 kPa | 821.256
303.16 K, 29990 kPa | 822.537
308.15 K, 274.3 kPa | 798.317
308.15 K, 494.1 kPa | 798.504
308.15 K, 803.3 kPa | 798.75
308.15 K, 1039.5 kPa | 798.954
308.15 K, 1916.7 kPa | 799.642
308.15 K, 2980.7 kPa | 800.489
308.15 K, 4990.2 kPa | 802.048
308.15 K, 6964.9 kPa | 803.548
308.15 K, 8864.3 kPa | 804.962
308.15 K, 9863.1 kPa | 805.692
308.15 K, 12009 kPa | 807.267
308.15 K, 17850 kPa | 811.315
308.15 K, 19930 kPa | 812.759
308.15 K, 21988 kPa | 814.131
308.15 K, 25012 kPa | 816.144
308.15 K, 27955 kPa | 817.999
308.15 K, 29906 kPa | 819.191
308.15 K, 31929 kPa | 820.41
308.15 K, 32886 kPa | 820.911
308.15 K, 32941 kPa | 821.059
308.15 K, 34011 kPa | 821.636
308.15 K, 37971 kPa | 823.987
308.15 K, 40011 kPa | 825.154
308.15 K, 41998 kPa | 826.392
308.15 K, 45017 kPa | 828.081
308.15 K, 48033 kPa | 829.748
308.15 K, 50044 kPa | 830.856
308.15 K, 51977 kPa | 831.933
308.15 K, 54982 kPa | 833.542
308.15 K, 58009 kPa | 835.036
308.15 K, 60030 kPa | 836.098
308.15 K, 61985 kPa | 837.136
308.15 K, 64981 kPa | 838.691
308.16 K, 85.2 kPa | 798.155
308.16 K, 15069 kPa | 809.4
308.16 K, 34949 kPa | 822.224
308.16 K, 66088 kPa | 839.237
313.15 K, 103.1 kPa | 794.254
313.15 K, 316 kPa | 794.433
313.15 K, 569.6 kPa | 794.643
313.15 K, 1088.8 kPa | 795.074
313.15 K, 2109.7 kPa | 795.902
313.15 K, 3137 kPa | 796.707
313.15 K, 5111.8 kPa | 798.292
313.15 K, 6921.8 kPa | 799.704
313.15 K, 9210.7 kPa | 801.445
313.15 K, 10209 kPa | 802.164
313.15 K, 12020 kPa | 803.525
313.15 K, 15059 kPa | 805.716
313.15 K, 17921 kPa | 807.72
313.15 K, 19932 kPa | 809.082
313.15 K, 22058 kPa | 810.55
313.15 K, 24862 kPa | 812.41
313.15 K, 27869 kPa | 814.438
313.15 K, 29957 kPa | 815.731
313.15 K, 32107 kPa | 817.091
313.15 K, 32980 kPa | 817.674
313.15 K, 33002 kPa | 817.783
313.15 K, 33981 kPa | 818.214
313.15 K, 35045 kPa | 818.819
313.15 K, 38127 kPa | 820.76
313.15 K, 41978 kPa | 822.973
313.15 K, 44946 kPa | 824.676
313.15 K, 47880 kPa | 826.39
313.15 K, 52097 kPa | 828.677
313.15 K, 54924 kPa | 830.321
313.15 K, 58082 kPa | 831.994
313.15 K, 59932 kPa | 832.96
313.15 K, 62004 kPa | 834.048
313.15 K, 64954 kPa | 835.652
313.15 K, 66113 kPa | 836.222
313.16 K, 860.7 kPa | 794.888
313.16 K, 39997 kPa | 821.817
313.16 K, 50021 kPa | 827.556
318.15 K, 72.7 kPa | 790.456
318.15 K, 150.1 kPa | 790.516
318.15 K, 336.3 kPa | 790.675
318.15 K, 1105.7 kPa | 791.334
318.15 K, 1929.1 kPa | 792.026
318.15 K, 2933.2 kPa | 792.866
318.15 K, 8989 kPa | 797.678
318.15 K, 10075 kPa | 798.523
318.15 K, 11896 kPa | 799.896
318.15 K, 18102 kPa | 804.461
318.15 K, 19985 kPa | 805.78
318.15 K, 22094 kPa | 807.257
318.15 K, 29998 kPa | 812.541
318.15 K, 33016 kPa | 814.458
318.15 K, 37838 kPa | 817.415
318.15 K, 40093 kPa | 818.817
318.15 K, 44884 kPa | 821.648
318.15 K, 47944 kPa | 823.402
318.15 K, 54944 kPa | 827.433
318.15 K, 57972 kPa | 829.016
318.15 K, 59923 kPa | 830.12
318.15 K, 65022 kPa | 832.785
318.15 K, 66028 kPa | 833.327
318.16 K, 590.9 kPa | 790.894
318.16 K, 891 kPa | 791.16
318.16 K, 5020.8 kPa | 794.556
318.16 K, 6926.7 kPa | 796.098
318.16 K, 14800 kPa | 802.072
318.16 K, 24873 kPa | 809.191
318.16 K, 27909 kPa | 811.139
318.16 K, 31957 kPa | 813.824
318.16 K, 34110 kPa | 815.009
318.16 K, 35048 kPa | 815.63
318.16 K, 41996 kPa | 819.89
318.16 K, 49950 kPa | 824.565
318.16 K, 52037 kPa | 825.741
318.16 K, 61930 kPa | 831.241
323.15 K, 95 kPa | 786.145
323.15 K, 296.1 kPa | 786.326
323.15 K, 528.4 kPa | 786.535
323.15 K, 994.2 kPa | 786.944
323.15 K, 2006.9 kPa | 787.814
323.15 K, 2966.6 kPa | 788.632
323.15 K, 4996.2 kPa | 790.328
323.15 K, 7042.1 kPa | 792.001
323.15 K, 9029.9 kPa | 793.564
323.15 K, 10090 kPa | 794.392
323.15 K, 11914 kPa | 795.8
323.15 K, 15111 kPa | 798.229
323.15 K, 17981 kPa | 800.333
323.15 K, 20038 kPa | 801.815
323.15 K, 21995 kPa | 803.198
323.15 K, 24993 kPa | 805.264
323.15 K, 32079 kPa | 809.955
